According to BindingDB's records for doi:10.1016/j.bmcl.2009.09.017 (Pfizer, 2009):

Experiment: Antagonist activity at P2Y12 receptor in human platelet rich plasma assessed as inhibition of ADP-induced platelet aggregation by light transmission aggregometry
Compound `CCCCOC(=O)N1CCN(C(=O)[C@H](CCC(=O)O)NC(=O)c2cc(OCC3CCNCC3)nc(-c3ccccc3)n2)CC1` [(S)-5-(4-(butoxycarbonyl)piperazin-1-yl)-5-oxo-4-(2-phenyl-6-(piperidin-4-ylmethoxy)pyrimidine-4-carboxamido)pentanoic acid] has an IC50 of 1200 nM. For `CCCCOC(=O)N1CCN(C(=O)[C@H](CCC(=O)O)NC(=O)c2cc(OC3CCNCC3)nc(-c3ccccc3)n2)CC1` [(S)-5-(4-(butoxycarbonyl)piperazin-1-yl)-5-oxo-4-(2-phenyl-6-(piperidin-4-yloxy)pyrimidine-4-carboxamido)pentanoic acid], the IC50 was 1300 nM. With `CCCCCOC(=O)N1CCN(C(=O)[C@H](CCC(=O)O)NC(=O)c2cc(N3CCN(CC(=O)N4CCCC4)CC3)nc(-c3ccccc3)n2)CC1` [(S)-5-oxo-4-(6-(4-(2-oxo-2-(pyrrolidin-1-yl)ethyl)piperazin-1-yl)-2-phenylpyrimidine-4-carboxamido)-5-(4-(pentyloxycarbonyl)piperazin-1-yl)pentanoic acid] the IC50 was 1100 nM. With `CCCCCOC(=O)N1CCN(C(=O)[C@H](CCC(=O)O)NC(=O)c2cc(N3CCC(CC(=O)N4CCCC4)CC3)nc(-c3ccccc3)n2)CC1` [(S)-5-oxo-4-(6-(4-(2-oxo-2-(pyrrolidin-1-yl)ethyl)piperidin-1-yl)-2-phenylpyrimidine-4-carboxamido)-5-(4-(pentyloxycarbonyl)piperazin-1-yl)pentanoic acid] the IC50 was 1500 nM. For `CCCCCOC(=O)N1CCN(C(=O)[C@H](CCC(=O)O)NC(=O)c2cc(N3CCC(CN4CCCC4=O)CC3)nc(-c3ccccc3)n2)CC1` [(S)-5-oxo-4-(6-(4-((2-oxopyrrolidin-1-yl)methyl)piperidin-1-yl)-2-phenylpyrimidine-4-carboxamido)-5-(4-(pentyloxycarbonyl)piperazin-1-yl)pentanoic acid], the IC50 was 1600 nM. For `CCCCCOC(=O)N1CCN(C(=O)[C@H](CCC(=O)O)NC(=O)c2cc(SCC(F)(F)F)nc(-c3ccccc3)n2)CC1` [(S)-5-oxo-5-(4-(pentyloxycarbonyl)piperazin-1-yl)-4-(2-phenyl-6-(2,2,2-trifluoroethylthio)pyrimidine-4-carboxamido)pentanoic acid], the IC50 was > 10000 nM. With `CCCCCOC(=O)N1CCN(C(=O)[C@H](CCC(=O)O)NC(=O)c2cc(N3CCC(CCN4CCCC4)CC3)nc(-c3ccccc3)n2)CC1` [(S)-5-oxo-5-(4-(pentyloxycarbonyl)piperazin-1-yl)-4-(2-phenyl-6-(4-(2-(pyrrolidin-1-yl)ethyl)piperidin-1-yl)pyrimidine-4-carboxamido)pentanoic acid] the IC50 was 810 nM. Work on `CCCCCOC(=O)N1CCN(C(=O)[C@H](CCC(=O)O)NC(=O)c2cc(N3CCC(N4CCCC4)CC3)nc(-c3ccccc3)n2)CC1` [(S)-5-oxo-5-(4-(pentyloxycarbonyl)piperazin-1-yl)-4-(2-phenyl-6-(4-(pyrrolidin-1-yl)piperidin-1-yl)pyrimidine-4-carboxamido)pentanoic acid] yielded an IC50 of 510 nM. For `CCCCCOC(=O)N1CCN(C(=O)[C@H](CCC(=O)O)NC(=O)c2cc(N3CCC(CN4CCCC4)CC3)nc(-c3ccccc3)n2)CC1` [(S)-5-oxo-5-(4-(pentyloxycarbonyl)piperazin-1-yl)-4-(2-phenyl-6-(4-(pyrrolidin-1-ylmethyl)piperidin-1-yl)pyrimidine-4-carboxamido)pentanoic acid], the IC50 was 560 nM. With `CCCCCOC(=O)N1CCN(C(=O)[C@H](CCC(=O)O)NC(=O)c2cc(N3CCC(C(=O)N4CCCC4)CC3)nc(-c3ccccc3)n2)CC1` [(S)-5-oxo-5-(4-(pentyloxycarbonyl)piperazin-1-yl)-4-(2-phenyl-6-(4-(pyrrolidine-1-carbonyl)piperidin-1-yl)pyrimidine-4-carboxamido)pentanoic acid] the IC50 was 270 nM. With `CCCCCOC(=O)N1CCN(C(=O)[C@H](CCC(=O)O)NC(=O)c2cc(N3CCNCC3)nc(-c3ccccc3)n2)CC1` [(S)-5-oxo-5-(4-(pentyloxycarbonyl)piperazin-1-yl)-4-(2-phenyl-6-(piperazin-1-yl)pyrimidine-4-carboxamido)pentanoic acid] the IC50 was 1300 nM. For `CCCCCOC(=O)N1CCN(C(=O)[C@H](CCC(=O)O)NC(=O)c2cc(OCC3CCNCC3)nc(-c3ccccc3)n2)CC1` [(S)-5-oxo-5-(4-(pentyloxycarbonyl)piperazin-1-yl)-4-(2-phenyl-6-(piperidin-4-ylmethoxy)pyrimidine-4-carboxamido)pentanoic acid], the IC50 was 1700 nM. `CCCCCOC(=O)N1CCN(C(=O)[C@H](CCC(=O)O)NC(=O)c2nc(-c3ccccc3)cc(N3CCC(CCN4CCCC4)CC3)n2)CC1` [(S)-5-oxo-5-(4-(pentyloxycarbonyl)piperazin-1-yl)-4-(4-phenyl-6-(4-(2-(pyrrolidin-1-yl)ethyl)piperidin-1-yl)pyrimidine-2-carboxamido)pentanoic acid] gave an IC50 of 1700 nM. In the case of `CCCCCOC(=O)N1CCN(C(=O)[C@H](CCC(=O)O)NC(=O)c2nc(-c3ccccc3)cc(N3CCC(N4CCCC4)CC3)n2)CC1` [(S)-5-oxo-5-(4-(pentyloxycarbonyl)piperazin-1-yl)-4-(4-phenyl-6-(4-(pyrrolidin-1-yl)piperidin-1-yl)pyrimidine-2-carboxamido)pentanoic acid], the IC50 is reported as 2100 nM. In the case of `CCCCCOC(=O)N1CCN(C(=O)[C@H](CCC(=O)O)NC(=O)c2nc(-c3ccccc3)cc(N3CCNCC3)n2)CC1` [(S)-5-oxo-5-(4-(pentyloxycarbonyl)piperazin-1-yl)-4-(4-phenyl-6-(piperazin-1-yl)pyrimidine-2-carboxamido)pentanoic acid], the IC50 is reported as 5200 nM. `CCCCCOC(=O)N1CCN(C(=O)[C@H](CCC(=O)O)NC(=O)c2nc(OCC3CCNCC3)cc(-c3ccccc3)n2)CC1` [(S)-5-oxo-5-(4-(pentyloxycarbonyl)piperazin-1-yl)-4-(4-phenyl-6-(piperidin-4-ylmethoxy)pyrimidine-2-carboxamido)pentanoic acid] showed an IC50 of 9400 nM.
